From patent US12691100B2, “NMT inhibitor treatment of a senescence-associated disease or disorder of the liver” (Imperial College Innovations Limited, priority 2020, dated 2026)

Tests used:
IMR90 ER:RAS cells [1] = experiment: Intracellular levels of SASP cytokines IL-6 and IL-8 by immunofluorescence; format: cell-based, human; settings: 4OHT-induced senescent cells; 7 days after addition of the drugs; FIGS. 12A-C
Method: Immunofluorescence staining was carried out by first fixing wells of 96 well plate at desired timepoint for 1 hour using 4% PFA (w/v, in PBS) followed by washing 3 times with PBS. Wells were then permeabilized using 0.2% Triton® X-100 (v/v, PBS) for 10 min or with 0.5% Triton® X-100 (v/v, PBS) for COPI staining. Wells were then washed twice with PBS to halt permeabilization and then non-specific antibody binding blocked by incubation with a blocking solution for 1 hour at RT. Blocking solution contained 1% BSA (w/v, PBS) supplemented with 0.4% Fish Skin Gelatin (v/v, PBS). Primary antibodies were diluted in respective blocking solution (see ‘Antibodies’ for dilutions), blocking solution removed from well and incubated with primary antibody solution for 1 hour at RT. […]
(§1) High content image analysis was carried out using the InCell Investigator 2.7.3 software (GE Healthcare®). […] Quantification for nuclear staining was measured as average pixel intensity (grey scale) for the wavelength of fluorophore across the area of the nuclear mask. Cytoplasmic staining quantification was of either the average pixel intensity or the coefficient of variance of pixel intensities within collar area. […]
The intracellular levels of two SASP components, IL-6 and IL-8 were assessed using stained cells. […]

IMR90 ER:RAS cells [2] = experiment: Golgi dispersal by TGN46 staining, high throughput microscopy; format: cell-based, human; settings: 4OHT-induced senescent cells; 7 days after addition of the drugs; FIGS. 10A-B
Method: (§2) Immunofluorescence staining was carried out by first fixing wells of 96 well plate at desired timepoint for 1 hour using 4% PFA (w/v, in PBS) followed by washing 3 times with PBS. Wells were then permeabilized using 0.2% Triton® X-100 (v/v, PBS) for 10 min or with 0.5% Triton® X-100 (v/v, PBS) for COPI staining. Wells were then washed twice with PBS to halt permeabilization and then non-specific antibody binding blocked by incubation with a blocking solution for 1 hour at RT. Blocking solution contained 1% BSA (w/v, PBS) supplemented with 0.4% Fish Skin Gelatin (v/v, PBS). Primary antibodies were diluted in respective blocking solution (see ‘Antibodies’ for dilutions), blocking solution removed from well and incubated with primary antibody solution for 1 hour at RT. For BrdU staining primary antibody solution is supplemented with 0.5 U/ul DNase (Sigma) and 1 mM MgCl2 and incubation times reduced to 30 minutes. […]
as §1

IMR90 ER:RAS cells [3] = experiment: Unfolded protein response markers (CHOP, XBP1, ATF6) by high throughput microscopy; format: cell-based, human; settings: 4OHT treated and control cells; FIGS. 13A-D
Method: as §2, §1

[4] = Liver lipids (Oil Red O) and blood glucose in the same cohort of old mice; format: in vivo, C57BL/6J female mice; settings: 10 mg/kg i.p.
Method: For analysis of immune cell composition in whole blood, tail-vein blood was collected 2 days after last treatment. Whole blood was diluted in saline to a volume of […] and ran on a Sysmex XE2100 automated cell counter. Blood glucose levels were determined by collecting whole-blood from tail vein into heparinised tubes (Abraxis), 120-140 μL of whole-blood to be loaded onto a comprehensive diagnostic profile reagent rotor (Abraxis) and run on a VetScan VS2 Chemistry Analyzer (Abraxis: 500-7123).
Oil Red O staining for lipids was carried out on liver tissue in OCT was snap-frozen in liquid N2 and cryosectioned (15 μM). Sections were equilibrated to RT for 10 min and then stained with 0.5% Oil Red O solution (w/v, in isopropanol, Sigma, O1391) for 5 min, rinsed in tap water and counterstained with Mayer's hematoxylin for 30 s. Then sections were again rinsed in tap water for 30 min and coverslips mounted. Images were acquired on Zeiss AxioScan Z.1 and ImageJ quantification of Oil-red stain area relative to background tissue area performed for 3 fields per section.
To understand what effects are associated with the treatment with NMT inhibitors in vivo, we analysed different parameters in the same cohort of old mice described in FIG. 17A. First, we looked into the accumulation of lipid droplets in the liver using Oil Red O staining. These are an indication of hepatic steatosis, and importantly, elimination of senescent cells has been previously shown capable to reduce steatosis.
Other pathological change observed in old mice is the presence of increased levels of glucose in blood. This can be related with diabetes or metabolic disease. Importantly, both pathologies have been associated with the presence of senescent cells.

| SMILES | Intracellular levels of IL-6 and IL-8 (IMR90 ER:RAS cells [1]) | Golgi dispersal (TGN46 distribution) (IMR90 ER:RAS cells [2]) | UPR activation (nuclear CHOP, XBP1, ATF6; percentage of cells above threshold) (IMR90 ER:RAS cells [3]) | Glucose in blood, fasted mice ([4]; old mice fasted, FIG. 18C) | Glucose in blood, fed mice ([4]; old mice kept fed, FIG. 18B) | Accumulation of lipids in the liver (Oil Red O staining) ([4]; ~26 month female mice, FIG. 18A) |
| --- | --- | --- | --- | --- | --- | --- |
| Cc1nn(C)c(C)c1CCOc1c(-c2ccc3c(c2)c(CN(C)C)nn3C)ccc(F)c1F [Compound 1, 1-(5-(3,4-difluoro-2-(2-(1,3,5-trimethyl-1H-pyrazol-4-yl)ethoxy)phenyl)-1-methyl-1H-indazol-3-yl)-N,N-dimethylmethanamine] | selectively resulted in an intracellular accumulation of these cytokines on senescent cells | selectively caused Golgi dispersal on senescent cells | causes the induction of the unfolded protein response on senescent cells |  |  |  |
| Cc1c(NS(=O)(=O)c2c(Cl)cc(-c3ccnc(N4CCNCC4)c3)cc2Cl)c(CC(C)C)nn1C [Compound 2] | selectively resulted in an intracellular accumulation of these cytokines on senescent cells | selectively caused Golgi dispersal on senescent cells | causes the induction of the unfolded protein response on senescent cells | lower levels of glucose | lower levels of glucose | reduced accumulation of lipids in the liver |
